Measurements: ChEMBL document CHEMBL3351662, “Synthesis, bioassay, and QSAR study of bronchodilatory active 4H-pyrano[3,2-c]pyridine-3-carbonitriles” (Eur J Med Chem, 2015)

test: Bronchodialatory activity in guinea pig trachea assessed as reduction of histamine-induced contracture; assay type: functional, tissue-based, Cavia porcellus

| SMILES | IC50 |
| --- | --- |
| CO[C@@]12CCN(C)C[C@H]1[C@H](c1ccccc1)C(C#N)=C(N)O2 | 19.8 µM |
| CCN1CC[C@@]2(OC)OC(N)=C(C#N)[C@@H](c3ccc(N4CCCCC4)cc3)[C@@H]2C1 | 13.8 µM |
| CO[C@@]12CCN(Cc3ccccc3)C[C@H]1[C@H](c1ccc(N3CCOCC3)cc1)C(C#N)=C(N)O2 | 25.4 µM |
| CO[C@@]12CCN(C)C[C@H]1[C@H](c1ccc(C)cc1)C(C#N)=C(N)O2 | 13.2 µM |
| COc1ccc([C@@H]2C(C#N)=C(N)O[C@]3(OC)CCN(Cc4ccccc4)C[C@@H]23)cc1OC | 21.9 µM |
| COc1ccc([C@@H]2C(C#N)=C(N)O[C@]3(OC)CCN(C)C[C@@H]23)cc1 | 23.1 µM |
| CCN1CC[C@@]2(OC)OC(N)=C(C#N)[C@@H](c3ccc(OC)cc3)[C@@H]2C1 | 25.5 µM |
| CCN1CC[C@@]2(OC)OC(N)=C(C#N)[C@@H](c3ccccc3)[C@@H]2C1 | 23.4 µM |
| CO[C@@]12CCN(C)C[C@H]1[C@H](c1ccc(-c3cccs3)cc1)C(C#N)=C(N)O2 | 13.8 µM |
| CCN1CC[C@@]2(OC)OC(N)=C(C#N)[C@@H](c3ccc4ccccc4c3)[C@@H]2C1 | 28.3 µM |
| CCCN1CC[C@@]2(OC)OC(N)=C(C#N)[C@@H](c3ccc(OC)c(OC)c3)[C@@H]2C1 | 24.7 µM |
| CO[C@@]12CCN(C)C[C@H]1[C@H](c1ccc(N3CCOCC3)cc1)C(C#N)=C(N)O2 | 20.2 µM |
| CO[C@@]12CCN(Cc3ccccc3)C[C@H]1[C@H](c1ccccc1)C(C#N)=C(N)O2 | 22.6 µM |
| CCCN1CC[C@@]2(OC)OC(N)=C(C#N)[C@@H](c3ccc(C)cc3)[C@@H]2C1 | 21 µM |
| CCCN1CC[C@@]2(OC)OC(N)=C(C#N)[C@@H](c3ccccc3)[C@@H]2C1 | 20.7 µM |
| CO[C@@]12CCN(C)C[C@H]1[C@H](c1ccc(F)cc1)C(C#N)=C(N)O2 | 19.4 µM |
| CCN1CC[C@@]2(OC)OC(N)=C(C#N)[C@@H](c3ccc(OC)c(OC)c3)[C@@H]2C1 | 23.2 µM |
| CCN1CC[C@@]2(OC)OC(N)=C(C#N)[C@@H](c3ccc(Cl)cc3Cl)[C@@H]2C1 | 27.1 µM |
| CCN1CC[C@@]2(OC)OC(N)=C(C#N)[C@@H](c3ccc(Cl)cc3)[C@@H]2C1 | 14.9 µM |
| CCCN1CC[C@@]2(OC)OC(N)=C(C#N)[C@@H](c3ccc(Br)cc3)[C@@H]2C1 | 19.4 µM |
| CCN1CC[C@@]2(OC)OC(N)=C(C#N)[C@@H](c3ccc(Br)cc3)[C@@H]2C1 | 13.2 µM |

| SMILES | IC50 |
| --- | --- |
| CCCN1CC[C@@]2(OC)OC(N)=C(C#N)[C@@H](c3ccc4ccccc4c3)[C@@H]2C1 | 37.1 µM |
| CCCN1CC[C@@]2(OC)OC(N)=C(C#N)[C@@H](c3ccc(OC)cc3)[C@@H]2C1 | 21.3 µM |
| CO[C@@]12CCN(Cc3ccccc3)C[C@H]1[C@H](c1ccc(Cl)cc1Cl)C(C#N)=C(N)O2 | 18.3 µM |
| CO[C@@]12CCN(C)C[C@H]1[C@H](c1ccc(Cl)cc1)C(C#N)=C(N)O2 | 10.5 µM |
| CCN1CC[C@@]2(OC)OC(N)=C(C#N)[C@@H](c3ccc(-c4cccs4)cc3)[C@@H]2C1 | 19.8 µM |
| CO[C@@]12CCN(Cc3ccccc3)C[C@H]1[C@H](c1ccc3ccccc3c1)C(C#N)=C(N)O2 | 23.4 µM |
| COc1ccc([C@@H]2C(C#N)=C(N)O[C@]3(OC)CCN(C)C[C@@H]23)cc1OC | 19.1 µM |
| CCCN1CC[C@@]2(OC)OC(N)=C(C#N)[C@@H](c3ccc(Cl)cc3Cl)[C@@H]2C1 | 35.5 µM |
| CO[C@@]12CCN(C)C[C@H]1[C@H](c1ccc(N3CCCCC3)cc1)C(C#N)=C(N)O2 | 19 µM |
| CO[C@@]12CCN(C)C[C@H]1[C@H](c1ccc(Cl)cc1Cl)C(C#N)=C(N)O2 | 14.9 µM |
| Cn1c(=O)c2nc[nH]c2n(C)c1=O [THEOPHYLLINE] | 19.9 µM |
| CO[C@@]12CCN(Cc3ccccc3)C[C@H]1[C@H](c1ccc(Cl)cc1)C(C#N)=C(N)O2 | 18.5 µM |
| CCCN1CC[C@@]2(OC)OC(N)=C(C#N)[C@@H](c3ccc(F)cc3)[C@@H]2C1 | 29.6 µM |
| CO[C@@]12CCN(Cc3ccccc3)C[C@H]1[C@H](c1ccc(C)cc1)C(C#N)=C(N)O2 | 27.1 µM |
| CO[C@@]12CCN(Cc3ccccc3)C[C@H]1[C@H](c1ccc(F)cc1)C(C#N)=C(N)O2 | 17.2 µM |
| CO[C@@]12CCN(C)C[C@H]1[C@H](c1ccc3ccccc3c1)C(C#N)=C(N)O2 | 24.2 µM |
| COc1ccc([C@@H]2C(C#N)=C(N)O[C@]3(OC)CCN(Cc4ccccc4)C[C@@H]23)cc1 | 23.1 µM |
| CCN1CC[C@@]2(OC)OC(N)=C(C#N)[C@@H](c3ccc(N4CCOCC4)cc3)[C@@H]2C1 | 28.7 µM |
| CCCN1CC[C@@]2(OC)OC(N)=C(C#N)[C@@H](c3ccc(Cl)cc3)[C@@H]2C1 | 30.3 µM |
| CO[C@@]12CCN(C)C[C@H]1[C@H](c1ccc(Br)cc1)C(C#N)=C(N)O2 | 7.9 µM |
| CCN1CC[C@@]2(OC)OC(N)=C(C#N)[C@@H](c3ccc(C)cc3)[C@@H]2C1 | 16.8 µM |
